Test systems include TK-10; A498; NCI-H226; DU-145; OVCAR-3; SR; CCRF-CEM; HCT-116; SF-268; M14; COLO 205; SNB-19; UO-31; LOX IMVI; SK-MEL-5; OVCAR-8; NCI-H460; CAKI-1; SW-620; SNB-75.
Assay in all cases: NCI anticancer screen, dose series, 48 h

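Grown in 96-well plates, cells were treated for 48 hours with each compound at five concentrations. Insufficient inhibition: endpoint recorded as highest concentration tested. Abbreviation: GI50, concentration required for 50% inhibition of growth.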 Active and inactive are the calls of the source. Cut-off read from the data, not from the text of the source: active = GI50 up to about 1.1 µM and inactive = higher.

Regarding `COc1ccc(OC)c(C2CCc3nc4nc(N)nc(N)c4cc3C2)c1` (stereo not given), the GI50 with TK-10 is 9.77 µM (inactive); in the test on A498 it was 12.7 µM (inactive); in the test on NCI-H226, 8.47 µM (inactive); in the test on DU-145, 5.66 µM (inactive); with OVCAR-3, 1.82 µM (inactive); in the test with SR, 2.48 µM (inactive). Also, the GI50 is 2.96 µM (inactive) with CCRF-CEM; 1.83 µM (inactive) in the test with HCT-116; 2.96 µM (inactive) in the test on SF-268; 1.8 µM (inactive) in the test with M14; 3.32 µM (inactive) in the test on COLO 205; 2.43 µM (inactive) in the test with SNB-19. Besides, the GI50 was 3.25 µM (inactive) with UO-31; 3.12 µM (inactive) in the test with LOX IMVI; 5.05 µM (inactive) with SK-MEL-5; 2.47 µM (inactive) with OVCAR-8; 4.66 µM (inactive) in the test on NCI-H460; 20.8 µM (inactive) in the test with CAKI-1. In addition, the GI50 with SW-620 was 2.86 µM (inactive); with SNB-75, 1.94 µM (inactive).

For the molecule `CCSC(=O)N1c2ccc(OC)cc2C=CC1C#N` (stereo not given), the GI50 with TK-10 was 0.00971 µM (active); in the test on A498, < 0.01 µM (active); with NCI-H226 it was 0.00759 µM (active); in the test on DU-145 it was 0.00168 µM (active); with OVCAR-3 it was 0.001 µM (active); with SR, 0.000843 µM (active). Further, the GI50 was 0.00313 µM (active) in the test on CCRF-CEM; 0.000509 µM (active) in the test with HCT-116; 0.00113 µM (active) with SF-268; 0.00601 µM (active) in the test with M14; 0.00298 µM (active) with COLO 205; 0.0176 µM (active) with SNB-19. For the same molecule, the GI50 was < 0.01 µM (active) in the test on UO-31; 0.00424 µM (active) with LOX IMVI; 0.00152 µM (active) with SK-MEL-5; 0.00569 µM (active) in the test with OVCAR-8; 0.00423 µM (active) in the test on NCI-H460; < 0.01 µM (active) in the test on CAKI-1. Moreover, the GI50 in the test with SW-620 was 0.00356 µM (active); in the test on SNB-75, 0.00417 µM (active).

On to `Oc1ccccc1/C=N/c1ccc(-c2nc3ccccc3s2)cc1`, for which the GI50 was 31.2 µM (inactive) in the test with TK-10; 21.4 µM (inactive) in the test on A498; 24.8 µM (inactive) with NCI-H226; 45.7 µM (inactive) in the test on DU-145; 20.6 µM (inactive) in the test with OVCAR-3; 33.7 µM (inactive) in the test on SR. The GI50 with CCRF-CEM is 6.89 µM (inactive); with HCT-116, 29.6 µM (inactive); in the test on SF-268 it was 23.2 µM (inactive); in the test with M14, 37.1 µM (inactive); in the test with COLO 205, 19.6 µM (inactive); with SNB-19, 48.4 µM (inactive). For the same molecule, the GI50 was 28.5 µM (inactive) with UO-31; 26.4 µM (inactive) with LOX IMVI; 15.1 µM (inactive) with SK-MEL-5; 28.6 µM (inactive) in the test on OVCAR-8; 25 µM (inactive) in the test on NCI-H460; 28.2 µM (inactive) in the test on CAKI-1. Moreover, the GI50 with SW-620 is 41.5 µM (inactive); in the test with SNB-75 it was 36.1 µM (inactive).

As to `C=C(Br)CN(C#N)CC(=C)Br`, the GI50 in the test on TK-10, in the test on A498, in the test on NCI-H226, with DU-145, in the test on OVCAR-3 and in the test with SR was > 100 µM (inactive) in each case. Also, the GI50 with CCRF-CEM, with HCT-116, in the test on SF-268, in the test on M14, in the test with COLO 205 and with SNB-19 was > 100 µM (inactive) each time. The GI50 in the test with UO-31, with LOX IMVI, with SK-MEL-5, in the test with OVCAR-8, with NCI-H460 and with CAKI-1 was > 100 µM (inactive) throughout. In addition, the GI50 in the test with SW-620 and with SNB-75 was > 100 µM (inactive) each time.

(Values after ChEMBL document CHEMBL1201862, “PubChem BioAssay data set” (2004).)
